Drawing on ChEMBL document CHEMBL1125599, “Cholinergic activity of acetylenic imidazoles and related compounds” (J Med Chem, 1991), this text covers ED50, Ki and Ki ratio for 19 compounds.

A value given as a limit tells only on which side of the number the result lay.

Assay [1] has as its system Mus musculus. Put plainly: ED50 value determined as oxotremorine antagonism by measuring salivation in mice (in vivo). The format is functional.
Assay [2] has as its system Mus musculus. Put plainly: ED50 value determined as oxotremorine antagonism by measuring tremors in mice (in vivo). The format is functional.
The test system of assay [3] is Mus musculus. The assay is described as follows: ED50 value as cholinergic agonism by measuring lacrimation in mice (in vivo). Type of assay: functional.
For assay [4], the system named is Mus musculus. Put plainly: ED50 value as cholinergic agonist by measuring salivation in mice (in vivo). Type of assay: functional.
For assay [5], the system named is Mus musculus. Put plainly: ED50 value as cholinergic agonist by measuring tremors in mice (in vivo). The format is functional.
Assay [6] has as its system Mus musculus. The assay is described as follows: ED50 value determined as oxotremorine antagonism by measuring lacrimation in mice (in vivo). Type of assay: functional.
The target in assay [7] is Muscarinic acetylcholine receptor. The assay is described as follows: Binding affinity to muscarinic acetylcholine receptor was determined in presence of [3H]OXO-M radioligand (in vitro). Type of assay: protein assay.
The target is the same in assay [8]. Put plainly: Binding affinity to muscarinic acetylcholine receptor was determined in presence of [3H]QNB radioligand (in vitro). The format is protein assay.
The target of assay [9] is Muscarinic acetylcholine receptor (Rattus norvegicus) (UniProt P08482+P08483+P08485+P08911+P10980). The assay is described as follows: Ratio of Ki value for QNB to that of Ki value for Oxo-M. The format is protein assay.

As a reminder, the ED50 is the dose that gives a 50% effect, or the effect in half of the subjects. In general, Ki refers to a dissociation constant, usually derived from enzyme kinetics or from competition with a known ligand. As to `COC(=O)N(C)C(C)C#CCn1cncc1C` (stereo not drawn), the ED50 in assay [1] is 6.6 mg/kg; in assay [2] it was above 100 mg/kg; in assay [3], above 100 mg/kg; in assay [4] it was above 100 mg/kg; in assay [5] it was 97 mg/kg; in assay [6] it was 3.7 mg/kg. Besides, the figures for the Ki in assay [7] and in assay [8] were 9.5 nM and 97 nM, respectively. For the same compound, the Ki ratio in assay [9] turned out to be 10.

On to `COC(=O)N(C)C(C)C#CCn1ccnc1` (stereo not drawn), for which the ED50 was above 100 mg/kg in assay [1]; above 100 mg/kg in assay [2]; 8 mg/kg in assay [3]; 8 mg/kg in [4]; 6.6 mg/kg in assay [5]; above 100 mg/kg in assay [6]. In addition, the Ki in [7] was 13 nM; in assay [8] it was 1355 nM. Also, the Ki ratio in assay [9] came out at 104.

For `Cc1cncn1CC#CCn1ccn(C)c1=O`, the ED50 in assay [1] is 22 mg/kg; in assay [2] it was above 100 mg/kg; in assay [3] it was above 100 mg/kg; in assay [5] it was 100 mg/kg; in [6], 8 mg/kg. Besides, the inhibitory constant (Ki) in assay [7] was 39 nM; in assay [8], 614 nM. The Ki ratio in assay [9] was found to be 16.

In the case of `Cc1cncn1CC#CCN1CCCC1=O`, the ED50 in [1] was above 100 mg/kg; in assay [2] it was above 100 mg/kg; in assay [3], above 100 mg/kg; in [4], above 100 mg/kg; in assay [5], 2.5 mg/kg; in assay [6] it was 0.8 mg/kg. The Ki turned out to be 3.2 nM in assay [7] and 64 nM in assay [8]. Further, in [9], the Ki ratio was determined as 20.

For the compound `CC(C#CCN1CCCC1)N1CCCC1=O` (stereo not drawn), the ED50 was 0.55 mg/kg in assay [1]; 3 mg/kg in [2]; above 30 mg/kg in [3]; above 30 mg/kg in [4]; above 30 mg/kg in assay [5]; 0.55 mg/kg in assay [6]. For the same compound, the Ki in assay [7] is given as 1.1 nM; in [8] it was 14 nM. Besides, the Ki ratio in [9] was 13.

With `COC(=O)N(C)CC#CCN1CCCC1`, the ED50 was above 10 mg/kg in assay [1]; above 10 mg/kg in assay [2]; 3 mg/kg in assay [3]; 5.5 mg/kg in assay [4]; 1.4 mg/kg in [5]; above 10 mg/kg in [6]. The Ki in assay [7] is 2.6 nM; in assay [8], 550 nM. Besides, the Ki ratio in assay [9] was 211.

Take `O=C1OCCN1CC#CCn1ccnc1`: the ED50 in assay [1] is above 100 mg/kg; in assay [2], above 100 mg/kg; in assay [3], 3 mg/kg; in assay [4], 2 mg/kg; in assay [5] it was 3 mg/kg; in assay [6], above 100 mg/kg. Moreover, the Ki in [7] is 5.7 nM; in assay [8] it was 929 nM. For the same compound, the Ki ratio in assay [9] was 164.

`CN(C)C(=O)N(C)CC#CCN1CCCC1`: the ED50 is above 10 mg/kg in [1]; above 10 mg/kg in [2]; above 10 mg/kg in [3]; above 10 mg/kg in [4]; 1.2 mg/kg in [5]; 6.6 mg/kg in assay [6]. For the same compound, the Ki in assay [7] is 3.6 nM; in [8], 140 nM. The Ki ratio in [9] is 39.

For `CC(C#CCN(C)C)N1CCCC1=O` (stereo not drawn), the ED50 in assay [1] is above 100 mg/kg; in [2], above 100 mg/kg; in assay [3], 6.6 mg/kg; in assay [4], 6.6 mg/kg; in [5] it was 100 mg/kg; in assay [6] it was above 100 mg/kg. Besides, the Ki in assay [7] worked out at 26.4 nM; in assay [8], 1702 nM. Also, the Ki ratio in [9] was found to be 65.

For the compound `COC(=O)N(C)C(C)C#CCN1CCCC1` (stereo not drawn), the ED50 is above 100 mg/kg in assay [1]; above 100 mg/kg in assay [2]; 20.9 mg/kg in assay [3]; 14.2 mg/kg in [4]; 9.7 mg/kg in assay [5]; above 100 mg/kg in assay [6]. The Ki in [7] is listed as 1.5 nM; in assay [8], 64 nM. Also, the Ki ratio in assay [9] was determined as 43.

Turning to `CCOC(=O)N(C)CC#CCN1CCCC1`, the ED50 was above 100 mg/kg in [1]; above 100 mg/kg in [2]; above 100 mg/kg in assay [3]; above 100 mg/kg in [4]; 66 mg/kg in assay [5]; above 100 mg/kg in assay [6]. The Ki in assay [7] was 65 nM; in [8] it was 4219 nM. The Ki ratio in assay [9] is 65.

As for `Cc1cncn1CC#CCN1CCOC1=O`, the ED50 in [1] is 80 mg/kg; in assay [2] it was above 100 mg/kg; in assay [3], above 100 mg/kg; in assay [4], above 100 mg/kg; in [5], 30 mg/kg; in assay [6], 37 mg/kg. The Ki in [7] was 18 nM; in [8], 151 nM. The Ki ratio in assay [9] was 8.4.

On to `Cc1c[n+](C)cn1CC#CCN1CCCC1=O.[I-]`, for which the median effective dose (ED50) in assay [1] is 25 mg/kg; in assay [2] it was above 100 mg/kg; in assay [3] it was above 100 mg/kg; in assay [4] it was above 100 mg/kg; in assay [5], 30 mg/kg; in assay [6], 9.7 mg/kg. Besides, the Ki is listed as 53 nM in assay [7] and 303 nM in assay [8]. Besides, in assay [9], the Ki ratio came to 5.7.

Regarding `Cc1cncn1CC#CCN1C(=O)CCC1C` (stereo not drawn), the ED50 in [1] was 1.4 mg/kg; in assay [2], 14.2 mg/kg; in assay [3] it was above 100 mg/kg; in [4], above 100 mg/kg; in assay [5] it was above 100 mg/kg; in assay [6] it was 0.8 mg/kg. For the same compound, the Ki in [7] is recorded as 1.68 nM; in assay [8], 11.6 nM. Also, the Ki ratio in assay [9] was 6.9.

Regarding `COC(=O)N(C)CC#CCn1cncc1C`, the ED50 in [1] is 5.4 mg/kg; in [2], above 100 mg/kg; in assay [3] it was above 100 mg/kg; in assay [5], 4.5 mg/kg; in [6], 3 mg/kg. Besides, the figures for the Ki in [7] and in [8] were 36 nM and 1001 nM, respectively. For the same compound, the Ki ratio in assay [9] turned out to be 28.

For `CC1CCC(=O)N1CC#CCN1CCCC1` (stereo not drawn), the ED50 in [1] is 2 mg/kg; in [2], 1.7 mg/kg; in assay [3], above 30 mg/kg; in assay [4], above 30 mg/kg; in assay [5] it was above 30 mg/kg; in assay [6], 0.55 mg/kg. In addition, the values for the Ki in [7] and in assay [8] were 1.5 nM and 14 nM, respectively. Moreover, the Ki ratio in assay [9] was 9.4.

In the case of `Cc1cncn1CC#CC(C)N1CCCC1=O` (stereo not drawn), the ED50 was 2.5 mg/kg in assay [1]; 25.4 mg/kg in assay [2]; above 100 mg/kg in assay [3]; above 100 mg/kg in assay [4]; above 100 mg/kg in [5]; 0.45 mg/kg in assay [6]. Also, the Ki turned out to be 5.22 nM in [7] and 16.8 nM in assay [8]. In addition, the Ki ratio in assay [9] was 3.2.

Regarding `CCOC(=O)N(C)C(C)C#CCN1CCCC1` (stereo not drawn), the ED50 is above 100 mg/kg in [1]; above 100 mg/kg in [2]; above 100 mg/kg in assay [3]; above 100 mg/kg in [4]; above 100 mg/kg in assay [5]; 97 mg/kg in [6]. Moreover, the Ki was determined as 22 nM in [7] and 110 nM in [8]. The Ki ratio in assay [9] is 5.

Turning to `CC(C#CCn1ccnc1)N1CCN(C)C1=O` (stereo not drawn), the ED50 in assay [1] is 21 mg/kg; in assay [2], above 100 mg/kg; in assay [3] it was above 100 mg/kg; in [5], 97 mg/kg; in assay [6] it was 21 mg/kg. The results for the Ki in assay [7] and in assay [8] were 120 nM and 4009 nM, respectively. The Ki ratio in assay [9] is 33.
